Values joined by “and” are separate entries in the source; they are usually repeats but may differ in a detail not shown here. Equal entries are not always repeated. Where two headings read alike, the source gives them in different places.
Experiments:
[1] = Distribution of tosedostat in brain and plasma (LC-MS/MS); format: in vivo, mouse; conditions: 10 mg/Kg i.p., over 4 hours
Procedure: The subjects were intraperitoneally injected with ketamine-xylazine cocktail (100 mg/kg ketamine+10 mg/kg xylazine) 2 minutes prior to the time-point being analyzed. Specifically, samples were collected at 0.25, 0.5, 1, 2, and 4 hours after the drug administration. […] Samples were immediately centrifuged at 3000×rpm for 10 minutes at 4° C. and the separated top plasma layer was transferred into a new tube. Blood samples stored at −80° C. until LC-MS/MS analysis. For brain samples, brain tissue was extracted from the animal and washed with copious volumes of ice-cold D-PBS for removal of blood from the sample. and Collect brain and wash the brain with ice-cold DPBS properly to remove blood. The sample was then gently wiped with absorbent paper, weighed, and transferred into a 15 mL tube. The brain samples were homogenized by adding 1:5 (w/v) of ice-cold D-PBS into the tube and using mechanical homogenizer on them. Homogenized brain samples were also stored at −80° C.
LC-MS/MS analysis: Frozen plasma and brain homogenate samples were thawed and rapidly quenched as detailed here. For plasma samples, 30 μL of DMSO and 60 μL of acetonitrile containing 0.1% formic acid were added to 30 μL of each unknown thawed plasma sample. For brain homogenate samples, 10 μL of DMSO and 60 μL of acetonitrile containing 0.1% formic acid were added to 30 μL of each unknown sample. […]

mice [2] = test: Acetic acid writhing test (persistent pain); format: in vivo, mouse
Procedure: Acclimatized animals are treated systemically with a dilute solution of acetic acid inducing abdominal constrictions (writhes) or extension of hind limbs in the animal. The writhes and extensions are counted within a predetermined period of time to analyze the efficacy of the test compound. […] Percent inhibition is calculated according to the equation: % Inhibition=[(Mean number of writhes for control−Mean number of writhes for test compound)/(Mean number of writhes for control)]×100.
The mice were given vehicle or test compounds 15 min before acetic acid administration. Subsequently, all the groups of mice were injected with 1% (10 mL/kg) acetic acid solution intraperitoneally to induce writhing. The animals display characteristic movements such as extension of hind limb, abdominal constriction, and trunk twisting movement called writhing. The numbers of writhing episodes in 30 min period beginning at the time of the acetic acid administration were counted. […] APAP was dissolved in saline. Both test compounds were delivered intraperitoneally to the test animals.

mice [3] = test: Co-administration of opioid antagonist naloxone in hot-plate and tail-flick assays; format: in vivo, mouse
Procedure: Naloxone dissolved in saline was either administered subcutaneously (s.c.; dosage: 5 mg/Kg) via an injection to the interscapular skin, or it was given intracerebroventricularly (5 μg per mouse).
Naloxone is a broad-spectrum opioid receptor antagonist. It is known to interact with, mu- (μ-), delta- (δ-), and kappa- (κ-) opioid receptors, with highest affinity for the μ receptors. […] Naloxone dissolved in saline was delivered subcutaneously (s.c.) via an injection to the interscapular skin.
5 mg/Kg naloxone dissolved in saline was administered subcutaneously (s.c.) via an injection to the interscapular skin. Analgesic efficacy for various time-points was determined in hot-plate and tail-flick assays as detailed above.

mice [4] = test: Combination therapy with morphine, isobolographic analysis in tail-flick assay; conditions: for Dose Reduction Index (DRI) Tosedostat: in combination with morphine; for ED50: Mus musculus, ip
Neprilysin (NEP) = target: T1, Neprilysin (NEP) (Homo sapiens, UniProt P08473); test: Neprilysin inhibition assay (Mca-[…](Dpn) FRET substrate); format: biochemical
T1 construct: purchased Enzo Life Sciences
Procedure: Single concentration studies at 10 μM: Neprilysin inhibition assays were performed as described previously. The substrate Mca-[…](Dpn) and endopeptidase NEP were purchased from Enzo Life Sciences. […] Plate was mixed with a plate shaker at 1500 rpm for 30 seconds. The reaction was started with the addition of 6 μM of the FRET substrate and mixed for another 30 seconds at 1500 rpm. Mca fluorescence is quenched by Dpn until cleavage at Phe by NEP. The accumulation of the Mca was measured by exciting at 320 nm and reading the fluorescence at 405 nm on a Molecular Devices M5e plate reader for 40 minutes at room temperature. Percent inhibition is calculated in GraphPad Prism software using slopes in the linear range for each inhibitor at 10 μM.
Dose-Response Studies for NEP: Neprilysin inhibition assays were performed as described previously. The substrate Mca-[…](Dpn) and endopeptidase NEP were purchased from Enzo Life Sciences. Briefly, 0.5 nM NEP was incubated with 0.5 μL inhibitor. Compounds were tested at 3× dilutions from 100 μM final concentration in 50 mM HEPES pH 6.5 in 50 μL total volume in a black 384-well plate. Plate was mixed with a plate shaker at 1500 rpm for 30 seconds. The reaction was started with the addition of 6 μM of the FRET substrate and mixed for another 30 seconds at 1500 rpm. Mca fluorescence is quenched by Dpn until cleavage at Phe by NEP. The accumulation of the Mca was measured by exciting at 320 nm and reading the fluorescence at 405 nm on a Molecular Devices M5e plate reader for 40 minutes at room temperature. Steady state velocities were used to determine IC50 values by fitting the velocities vs. inhibitor concentration to the sigmoidal concentration-response curve (variable slope) using GraphPad Prism.

T1 sequence (P08473 whole entry, species assumed): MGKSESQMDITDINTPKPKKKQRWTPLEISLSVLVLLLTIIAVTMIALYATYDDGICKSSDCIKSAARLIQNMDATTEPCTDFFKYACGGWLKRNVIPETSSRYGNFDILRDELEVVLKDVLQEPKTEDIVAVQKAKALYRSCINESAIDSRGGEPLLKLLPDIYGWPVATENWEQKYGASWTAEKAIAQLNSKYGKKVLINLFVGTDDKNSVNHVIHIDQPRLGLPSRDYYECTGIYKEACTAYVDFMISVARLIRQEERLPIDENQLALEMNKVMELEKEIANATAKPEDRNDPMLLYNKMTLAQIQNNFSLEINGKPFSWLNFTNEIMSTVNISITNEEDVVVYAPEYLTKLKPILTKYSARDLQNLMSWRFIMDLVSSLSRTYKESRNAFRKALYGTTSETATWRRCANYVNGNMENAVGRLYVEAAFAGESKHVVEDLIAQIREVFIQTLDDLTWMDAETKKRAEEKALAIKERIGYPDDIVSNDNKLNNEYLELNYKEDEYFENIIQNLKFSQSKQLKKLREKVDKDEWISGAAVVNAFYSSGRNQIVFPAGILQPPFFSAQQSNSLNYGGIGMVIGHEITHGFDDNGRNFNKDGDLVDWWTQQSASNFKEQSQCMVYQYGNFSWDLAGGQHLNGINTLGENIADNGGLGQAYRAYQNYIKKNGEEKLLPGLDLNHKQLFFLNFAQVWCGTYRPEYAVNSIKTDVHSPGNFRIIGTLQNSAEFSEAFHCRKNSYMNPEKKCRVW

CC(C)C[C@@H](C(=O)N[C@H](C(=O)OC1CCCC1)c1ccccc1)[C@H](O)C(=O)NO [Tosedostat]
presence in brain homogenate compared to plasma samples [1]: minimal presence of tosedostat in the brain homogenate samples | dosage required for analgesic effect equivalent to 200 mg/Kg APAP (mice [2]; i.p.): 1 mg/kg | inhibition of writhings (mice [2]; i.p. 50 mg/Kg): > 90% | attenuation of writhing episodes compared to control groups (mice [2]; i.p., 30-minute count after acetic acid): significant attenuation of writhing episodes in a dose-dependent manner | effect of centrally administered naloxone on analgesic response of tosedostat (mice [3]; tosedostat 58.1 mg/Kg i.p. + naloxone 5 μg per mouse i.c.v.): no attenuation of analgesic response | effect of subcutaneous naloxone on analgesic action of tosedostat (mice [3]; tosedostat 58.1 mg/Kg i.p. + naloxone 5 mg/Kg s.c.): partially blocked the analgesic action | Dose Reduction Index (DRI) Tosedostat (mice [4]; 15 min): 2.52 | Dose Reduction Index (DRI) Tosedostat (mice [4]; 30 min): 1.91 | Dose Reduction Index (DRI) Tosedostat (mice [4]; 45 min): 1.79 | Dose Reduction Index (DRI) Tosedostat (mice [4]; 60 min): 2.21 | ED50 (mice [4]; 0.25 h, read-out: Tosedostat ED50 (±SEM)): 89 ± 109 mg/kg | ED50 (mice [4]; 0.5 h, read-out: Tosedostat ED50 (±SEM)): 85.8 ± 132 mg/kg | ED50 (mice [4]; 0.75 h, read-out: Tosedostat ED50 (±SEM)): 71.5 ± 47.6 mg/kg | ED50 (mice [4]; 1 h, read-out: ED50, given alone): 58.1 to 82 mg/kg | ED50 (mice [4]; 1 h, read-out: Tosedostat ED50 (±SEM)): 97.3 ± 33.6 mg/kg | IC50 (Neprilysin (NEP); dose response, 3x dilutions from 100 μM): 900 nM and 890 nM | inhibition at 10 µM (Neprilysin (NEP); inhibitor 10 μM, read-out: NEP @ 10 μM (percent inhibition)): 79%

— patent US10925851B2 (Regents of the University of Minnesota, priority 2018, dated 2021)
